Measurements from patent US20250188044A1 (HARBIN MEDISAN PHARMACEUTICAL CO., LTD., priority 2021, published 2025).
Read-outs that look alike come from different tables or passages of the source.

Assays:
Type in all cases: cell-based
[1] = target: T1, PPARδ (Homo sapiens, UniProt Q03181); assay: Gal4-PPARδ(LBD) reporter gene agonistic activity assay in Cos-7 cells; conditions: for agonistic activity for PPARδ (EC50 level, in words): Cos-7 reporter assay
T1 construct: expressed in transfected cells; host or cells: Cos-7
T1 sequence (Q03181 139-441 limits assumed): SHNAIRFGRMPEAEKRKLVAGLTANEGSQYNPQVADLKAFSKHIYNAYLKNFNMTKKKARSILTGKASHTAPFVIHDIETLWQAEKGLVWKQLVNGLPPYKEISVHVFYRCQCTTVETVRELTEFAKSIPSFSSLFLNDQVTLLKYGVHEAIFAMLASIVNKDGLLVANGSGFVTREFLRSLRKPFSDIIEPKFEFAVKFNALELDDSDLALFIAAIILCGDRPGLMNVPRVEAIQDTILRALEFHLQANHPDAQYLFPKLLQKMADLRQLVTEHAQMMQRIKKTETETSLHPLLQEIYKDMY
Method: (§1) Cos-7 cells (African green monkey kidney fibroblasts, commonly used tool cells) were cultured in a 10 cm cell culture dish in a DMEM complete medium containing 10% fetal bovine serum. When the cells grew to a density of about 70%, the medium was replaced with a fresh medium for later transfection. […] The plasmid working solution was then added to the cell culture dish for cell transfection. […] Test compounds were prepared into appropriate test concentrations with a complete medium and then added to the 96-well plate. […] 10 μL of lysate was pipetted into a white opaque 384-well plate, and then 10 μL of reporter gene assay buffer (purchased from Shanghai Beyotime Biological Tech. Co., Ltd.) was added. The bioluminescence was detected by using a multimode microplate reader, and the corresponding half maximal effective concentration (EC50) value was calculated according to the detection value.

[2] = target: T2, PPARγ (Homo sapiens, UniProt P37231); assay: Gal4-PPARγ(LBD) reporter gene agonistic activity assay in Cos-7 cells
T2 construct: hPPARγ (281aa-554aa); expressed in transfected cells; host or cells: Cos-7
T2 sequence (P37231 232-505 limits assumed): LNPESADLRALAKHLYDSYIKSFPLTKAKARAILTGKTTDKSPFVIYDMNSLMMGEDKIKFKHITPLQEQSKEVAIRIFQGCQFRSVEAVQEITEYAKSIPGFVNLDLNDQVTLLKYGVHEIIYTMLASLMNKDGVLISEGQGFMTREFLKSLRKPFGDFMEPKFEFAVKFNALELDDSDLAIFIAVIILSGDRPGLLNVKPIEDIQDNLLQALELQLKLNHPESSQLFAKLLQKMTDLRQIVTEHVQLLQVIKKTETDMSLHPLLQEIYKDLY
Method: as §1

[3] = target: T3, PPARα (Homo sapiens, UniProt Q07869); assay: Gal4-PPARα(LBD) reporter gene agonistic activity assay in Cos-7 cells; conditions: for EC50: Cos-7 cells, Gal4-PPARα(LBD) reporter, 16 h, 100% = GW7647 10 nM; for agonistic activity for PPARα (EC50 level, in words): Cos-7 reporter assay
T3 construct: hPPARα (279aa-580aa); expressed in transfected cells; host or cells: Cos-7
T3 sequence (Q07869 167-468 limits assumed): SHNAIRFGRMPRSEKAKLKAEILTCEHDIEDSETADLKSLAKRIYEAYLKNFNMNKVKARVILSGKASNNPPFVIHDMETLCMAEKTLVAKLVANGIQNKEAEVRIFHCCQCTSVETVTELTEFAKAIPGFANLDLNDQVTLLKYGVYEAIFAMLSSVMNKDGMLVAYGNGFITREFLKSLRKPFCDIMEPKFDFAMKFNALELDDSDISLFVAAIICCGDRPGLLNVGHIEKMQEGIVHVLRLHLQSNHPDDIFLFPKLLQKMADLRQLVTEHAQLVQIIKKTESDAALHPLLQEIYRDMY
Method: as §1

[4] = Cos-7 cells, Gal4-PPARδ(LBD) reporter, 16 h, 100% = GW501516 10 nM
[5] = Cos-7 cells, Gal4-PPARγ(LBD) reporter, 16 h, 100% = Rosiglitazone 1 μM

| SMILES | EC50 [1, 4] [nM] | EC50 [3] [nM] | further results |
| --- | --- | --- | --- |
| Cc1cc(Cn2ncn(-c3ccc(-c4ccccc4)cc3)c2=O)cc(C)c1OC(C)(C)C(=O)O [Compound 117, 2-(4-((4-([1,1′-Biphenyl]-4-yl)-5-oxo-4,5-dihydro-1H-1,2,4-triazol-1-yl)methyl)-2,6-dimethylphenoxy)-2-methylpropionic acid] | 135 |  |  |
| Cc1cc(CCn2ncn(-c3ccc(C(F)(F)F)cc3)c2=O)cc(C)c1OC(C)(C)C(=O)O [Compound 194, 2-(2,6-Dimethyl-4-(2-(5-oxo-4-(4-(trifluoromethyl)phenyl)-4,5-dihydro-1H-1,2,4-triazol-1-yl)ethyl)phenoxy)-2-methylpropionic acid] | 38 |  | agonistic activity for PPARδ (EC50 level, in words) [1]: at nanomolar levels; EC50 [2, 5]: 2020 nM |
| CC(C)(Oc1ccc(Cn2ncn(-c3ccc(OC(F)(F)F)cc3)c2=O)cc1C(F)(F)F)C(=O)O [Compound 157, 2-Methyl-2-(4-((5-oxo-4-(4-(trifluoromethoxy)phenyl)-4,5-dihydro-1H-1,2,4-triazol-1-yl)methyl)-2-(trifluoromethyl)phenoxy)propionic acid] |  | 273 | EC50 [2, 5]: 1660 nM |
| CC(C)(Oc1ccc(Cn2ncn(-c3ccc(OC(F)(F)F)cc3)c2=O)cc1)C(=O)O [Compound 153, 2-Methyl-2-(4-((5-oxo-4-(4-(trifluoromethoxy)phenyl)-4,5-dihydro-1H-1,2,4-triazol-1-yl)methyl)phenoxy)propionic acid] | 1680 | 498 |  |
| Cc1cc(Cn2ncn(-c3ccc(OC(F)(F)F)cc3)c2=O)cc(Cl)c1OC(C)(C)C(=O)O [Compound 145, 2-(2-Chloro-6-methyl-4-((5-oxo-4-(4-(trifluoromethoxy)phenyl)-4,5-dihydro-1H-1,2,4-triazol-1-yl)methyl)phenoxy)-2-methylpropionic acid] |  | 8 | agonistic activity for PPARα (EC50 level, in words) [3]: at nanomolar levels; EC50 [1]: 29 nM; agonistic activity for PPARδ (EC50 level, in words) [1]: at nanomolar levels |
| CCOc1ccc(-n2cnn(Cc3cc(C)c(OC(C)(C)C(=O)O)c(C)c3)c2=O)cc1 [Compound 69, 2-(4-((4-(4-Ethoxyphenyl)-5-oxo-4,5-dihydro-1H-1,2,4-triazol-1-yl)methyl)-2,6-dimethylphenoxy)-2-methylpropionic acid] | 481 | 33 |  |
| Cc1cc(Cn2ncn(-c3ccccc3)c2=O)cc(C)c1OC(C)(C)C(=O)O [Compound 63, 2-(2,6-Dimethyl-4-((5-oxo-4-phenyl-4,5-dihydro-1H-1,2,4-triazol-1-yl)methyl)phenoxy)-2-methylpropionic acid] |  | 1030 | EC50 [2]: 8650 nM |
| CC(C)(Oc1c(Cl)cc(Cn2ncn(-c3ccc(OC(F)(F)F)cc3)c2=O)cc1Cl)C(=O)O [Compound 149, 2-(2,6-Dichloro-4-((5-oxo-4-(4-(trifluoromethoxy)phenyl)-4,5-dihydro-1H-1,2,4-triazo 1-1-yl)methyl)phenoxy)-2-methylpropionic acid] | 225 | 7 |  |
| CCc1cc(Cn2ncn(-c3ccc(C(F)(F)F)cc3)c2=O)cc(CC)c1OC(C)(C)C(=O)O [Compound 191, 2-(2,6-Diethyl-4-((5-oxo-4-(4-(trifluoromethyl)phenyl)-4,5-dihydro-1H-1,2,4-triazol-1-yl)methyl)phenoxy)-2-methylpropionic acid] | 42 | 44 | agonistic activity for PPARα (EC50 level, in words) [3]: at nanomolar levels; agonistic activity for PPARδ (EC50 level, in words) [1]: at nanomolar levels |
| CC(C)(Oc1ccc(Cn2ncn(-c3ccc(C(F)(F)F)cc3)c2=O)cc1F)C(=O)O [Compound 123, 2-(2-Fluoro-4-((5-oxo-4-(4-(trifluoromethyl)phenyl)-4,5-dihydro-1H-1,2,4-triazol-1-yl)methyl)phenoxy)-2-methylpropionic acid] | 664 | 394 |  |
| CC(C)(Oc1c(F)cc(Cn2ncn(-c3ccc(OC(F)(F)F)cc3)c2=O)cc1F)C(=O)O [Compound 155, 2-(2,6-Difluoro-4-((5-oxo-4-(4-(trifluoromethoxy)phenyl)-4,5-dihydro-1H-1,2,4-triazol-1-yl)methyl)phenoxy)-2-methylpropionic acid] | 1370 | 351 |  |
| CC(C)(Oc1ccc(Cn2ncn(-c3ccc(OC(F)(F)F)cc3)c2=O)cc1F)C(=O)O [Compound 151, 2-(2-Fluoro-4-((5-oxo-4-(4-(trifluoromethoxy)phenyl)-4,5-dihydro-1H-1,2,4-triazol-1-yl)methyl)phenoxy)-2-methylpropionic acid] | 914 | 220 |  |
| Cc1cc(Cn2ncn(-c3ccc(F)cc3)c2=O)cc(C)c1OC(C)(C)C(=O)O [Compound 109, 2-(4-((4-(4-Fluorophenyl)-5-oxo-4,5-dihydro-1H-1,2,4-triazol-1-yl)methyl)-2,6-dimethylphenoxy)-2-methylpropionic acid] | 389 | 645 |  |
| Cc1cc(Cn2ncn(-c3cccc(C(F)(F)F)c3)c2=O)cc(C)c1OC(C)(C)C(=O)O [Compound 121, 2-(2,6-Dimethyl-4-((5-oxo-4-(3-(trifluoromethyl)phenyl)-4,5-dihydro-1H-1,2,4-triazol-1-yl)methyl)phenoxy)-2-methylpropionic acid] | 39 |  |  |
| Cc1cc(Cn2ncn(-c3ccc(C(F)(F)F)cc3)c2=O)ccc1OC(C)(C)C(=O)O [Compound 77, 2-Methyl-2-(2-methyl-4-((5-oxo-4-(4-(trifluoromethyl)phenyl)-4,5-dihydro-1H-1,2,4-triazol-1-yl)methyl)phenoxy)propionic acid] | 132 | 103 |  |
| [2H]C([2H])(c1cc(C)c(OC(C)(C)C(=O)O)c(C)c1)n1ncn(-c2ccc(C(F)(F)F)cc2)c1=O [Compound 187, 2-(2,6-Dimethyl-4-((5-oxo-4-(4-(trifluoromethyl)phenyl)-4,5-dihydro-1H-1,2,4-triazol-1-yl)methyl-d2)phenoxy)-2-methylpropionic acid] |  | 10 | agonistic activity for PPARα (EC50 level, in words) [3]: at nanomolar levels; EC50 [1]: 7 nM; agonistic activity for PPARδ (EC50 level, in words) [1]: at nanomolar levels |
| Cc1cc(CCCn2ncn(-c3ccc(C(F)(F)F)cc3)c2=O)cc(C)c1OC(C)(C)C(=O)O [Compound 200, 2-(2,6-Dimethyl-4-(3-(5-oxo-4-(4-(trifluoromethyl)phenyl)-4,5-dihydro-1H-1,2,4-triazol-1-yl)propyl)phenoxy)-2-methylpropionic acid] | 212 | 134 |  |
| CC(C)(Oc1ccc(Cn2ncn(-c3ccc(C(F)(F)F)cc3)c2=O)cc1C(F)(F)F)C(=O)O [Compound 147] | 81 |  | EC50 [2, 5]: 1800 nM |
| Cc1cc(SCn2ncn(-c3ccc(C(F)(F)F)cc3)c2=O)cc(C)c1OC(C)(C)C(=O)O [Compound 198, 2-(2,6-Dimethyl-4-(((5-oxo-4-(4-(trifluoromethyl)phenyl)-4,5-dihydro-1H-1,2,4-triazol-1-yl)methyl)thio)phenoxy)-2-methylpropionic acid] |  | 289 | EC50 [2, 5]: 2850 nM |
| Cc1cc(OCn2ncn(-c3ccc(C(F)(F)F)cc3)c2=O)cc(C)c1OC(C)(C)C(=O)O [Compound 196, 2-(2,6-Dimethyl-4-((5-oxo-4-(4-(trifluoromethyl)phenyl)-4,5-dihydro-1H-1,2,4-triazol-1-yl)methoxy)phenoxy)-2-methylpropionic acid] | 56 | 86 |  |
| CC(C)(Oc1c(F)cc(Cn2ncn(-c3ccc(C(F)(F)F)cc3)c2=O)cc1F)C(=O)O [Compound 127, 2-(2,6-Difluoro-4-((5-oxo-4-(4-(trifluoromethyl)phenyl)-4,5-dihydro-1H-1,2,4-triazol-1-yl)methyl)phenoxy)-2-methylpropionic acid] | 586 |  |  |
| CC(C)(Oc1ccc(Cn2ncn(-c3ccc(C(F)(F)F)cc3)c2=O)cc1)C(=O)O [Compound 137, 2-(4-((4-(4-Trifluoromethylphenyl)-5-oxo-4,5-dihydro-1H-1,2,4-triazol-1-yl)methyl)phenoxy)-2-methylpropionic acid] | 1520 |  |  |
